Values quoted from earlier work in patent US20080234352A1, “Controlled release solid dispersions” (EGALET A/S, priority 2001, published 2008).
Where two headings read alike, the source gives them in different places.

Legend:
[1] = not given; remark: listed apart in the source

Row | Structure (SMILES) | pKa ([1]; pKa2) | pKa ([1]; pKa3) | pKa ([1]; pKa1) | other results
1 | COc1ccccc1OCCNCC(O)COc1cccc2[nH]c3ccccc3c12 (racemic) [Carvedilol] | – | – | – | alpha-mediated vasodilatory effects (decreased peripheral resistance and blood pressure) evident within (administration of an IR formulation): ≤ 30 min; binding to plasma (in vivo): highly bound; dose excreted unchanged in the urine (in vivo): less than 2%; dose linearity range (literature): 6.25 to 50 mg; time to peak plasma concentrations (oral administration): one to two; absorption in the large intestine, share of the total absorption (timed-release capsules, study by Nolte et al): approximately 10%
2 | CC(CC(=O)O)(CC(=O)O)C(=O)O [2-Methylpropane-1,2,3-triscarboxylic] | 5.02 | 7.20 | – | –
3 | O=C(O)c1cccc(C(=O)O)c1C(=O)O [Benzene-1,2,3-tricarboxylic (hemimellitic)] | 4.25 | 5.87 | 2.98 | –
4 | O=C(O)c1cc(C(=O)O)c(C(=O)O)cc1C(=O)O [Benzene-1,2,4,5-tetracarboxylic (pyromellitic)] | 3.13 | 4.44 | 2.43 | pKa ([1]; pKa4): 5.61
5 | O=C(O)c1cc(C(=O)O)cc(C(=O)O)c1 [Benzene-1,3,5-tricarboxylic (trimesic)] | 3.98 | 4.85 | 3.16 | –
6 | O=C(O)c1cc(C(=O)O)c(C(=O)O)c(C(=O)O)c1C(=O)O [Benzenepentacarboxylic] | 2.95 | 3.94 | – | pKa ([1]; pKa4): 5.07; pKa ([1]; pKa5): 6.25
7 | COc1cc2c(cc1OC)[C@@]13CCN4CC5=CCO[C@H]6CC(=O)N2[C@H]1[C@H]6[C@H]5C[C@H]43.O.O.O.O [Brucine tetrahydrate] | 7.95 | – | 2.30 | –
8 | O=C(O)CC(C(=O)O)C(CC(=O)O)C(=O)O (stereo not drawn) [Butane-1,2,3,4-tetracarboxylic] | 4.38 | 5.45 | – | pKa ([1]; pKa4): 6.63
9 | O=S(=O)(O)CCCNC1CCCCC1 [CAPS, 3-Cyclohexylamino-I-propanesulfonic acid] | 10.40 | – | – | –
10 | O=S(=O)(O)CCCN1CCN(CCO)CC1 [EPPS, 4-(2-Hydroxyethyl)-I-piperazinepropane sulfonic acid] | – | – | – | pKa ([1]; no step given): 8.00
11 | O=C(O)CC1(CC(=O)O)CCCC1 [I,I-Cyclopentanediacetic, I,I-Cyclopentanediacetic (3,3 tetramethylene glutaric acid)] | 6.70 | – | 3.82 | –
12 | C=C(CC(=O)O)C(=O)O [Itaconic] | 5.55 | – | 3.84 | –
13 | O=C(O)CC(O)C(=O)O (stereo not drawn) [Malic] | 5.05 | – | 3.40 | –
14 | O=C(O)C(O)c1ccccc1 (stereo not drawn) [Mandelic] | – | – | – | pKa ([1]; no step given): 3.36
15 | CN [Methylamine] | – | – | – | pKa ([1]; no step given): 10.64
16 | O=S(=O)(O)CCN1CCN(CCS(=O)(=O)O)CC1 [PIPES, 1,4-Piperazinebis-(ethanesulfonic acid)] | – | 3.00 | – | pKa ([1]; pKa4): 6.8
17 | O=C(O)c1ccccc1C(=O)O [Phthalic] | – | – | – | pKa ([1]; no step given): 2.90
18 | O=S(=O)(O)CCCNC(CO)(CO)CO [TAPS, N-Tris(hydroxymethyl)methyl-2-aminopropane suifonic acid] | 8.40 | – | – | –
19 | CN(C)C [Trimethylamine] | – | – | – | pKa ([1]; no step given): 9.74
